The experiment relates to 519858-162-T-J1-PDC complex spheroid growth, % test/control. The experiment in a line: Anticancer human tumor 519858-162-T-J1-PDC patient-derived colon adenocarcinoma cell line growth inhibition [Asc]. To be noted: for viability, T/C: stronger effect = lower value. The method, then:
Multicellular complex tumor spheroid response to apoptosis pathway targeting inhibitors Alrizomadlin, Pelcitoclax, and Dasminapant in combination with a variety of drugs and investigational agents in selected tumor cell lines
The MDM2 inhibitor alrizomadlin, the Bcl-2/Bcl-xL inhibitor pelcitoclax, and the IAPs inhibitor dasminapant were evaluated both individually and in combination with standard of care and investigational anticancer small molecules within a complex spheroid model of solid tumors. . Complex spheroids include a stromal component modeled by human endothelial cells (HUVEC) and fibroblasts modeled by human mesenchymal stem cells (MSCs). The concentration ranges selected for each drug and investigational agent were based upon clinically achievable concentrations if the clinical Cmax of the agent was known.
Compounds. The drugs and investigational agents: alrizomadlin (APG-115; NSC831270), pelcitoclax (APG-1252; NSC835773), dasminapant (APG-1387;NSC834197), TAK-243 (NSC785004), copanlisib (NSC809693), olaparib (NSC753686), talazoparib (NSC767125), cobimetinib (NSC 768068), eltanexor (KPT-8602, NSC 794443), abemaciclib (NSC 768073), sotorasib (NSC818433), adagrasib (NSC 831453), MRTX-1133 (NSC 836407), Iadademestat (ORY1001, NSC 806812), and RMC-4630 (NSC839698), were obtained from the NCI Developmental Therapeutics Program Chemical Repository. The FDA-approved anticancer drug set is available from the Developmental Therapeutics Program at https://dtp.cancer.gov/organization/dscb/obtaining/available plates.htm. […] The stock solutions were prepared in dimethyl sulfoxide (DMSO, Sigma-Aldrich, St. Louis, MO, cat. D2650) at 800-fold the tested concentration and stored at -70 degrees C prior to their use. All drugs and investigational agents were tested over a range starting from a high concentration at or near the clinical Cmax and decreasing in half-log increments. If the clinical Cmax for an agent had not been determined, the highest concentration tested was 10 microM.
The patient-derived cancer (PDC) cell lines include five colon adenocarcinomas: 186277-243-T-J2-PDC, 616215-338-R-J1-PDC, 439559-082-T-J2-PDC, 463943-066-T-J2-PDC, and 519858-162-T-J1-PDC; three pancreatic carcinomas: 323965-272-R-J2-PDC, 521955-158-R6-J3-PDC, and 521955-158-R2-J5-PDC; two uterine sarcomas: 327498-152-R-J2-PDC and 993429-296-R-J1-PDC; two rhabdomyosarcomas: 755483-174-R-J1-PDC and 772245-204-R-J1-PDC; two soft tissue sarcomas: 126254-015-R-J1-PDC and 494315-158-R-J1-PDC; two malignant fibrous histiocytomas: 317291-083-R-J1-PDC and 596521-263-R-J1-PDC; two breast carcinomas: 171881-019-R-J1-PDC and 885512-296-R-J2-PDC; and one ovarian carcinoma: 6556581-035-R-J-PDC were obtained from the NCI PDMR, (https://pdmr.cancer.gov). The established cell lines HSSY-2 synovial sarcoma (RRID:CVCL 8719), SYO-1 synovial sarcoma (RRID:CVCL_7146), MPNST malignant peripheral neural sheath tumor were obtained from the Sloan Kettering Institute. The following established cell lines were purchased from the American Type Culture Collection (ATCC, Manassas, VA), Sor the received from the NCI repository:, PANC-1 pancreatic carcinoma (CRL-1469, RRID:CVCL_0480), OVCAR-5 ovarian carcinoma (RRID:CVCL_1628), OVCAR-8 ovarian carcinoma (RRID:CVCL_1629), , MCF-7 breast carcinoma (CRL-12584, RRID:CVCL_0031), MDA-MB-231 breast carcinoma (CRL-12532, RRID:CVCL_0062), NCI-H1876 small cell lung carcinoma (CRL-5902, RRID:CVCL_1503), NCI-H510A small cell lung carcinoma (HTB-184, RRID:CVCL_1565), NCI-H1417 (CRL-5869, RRID:CVCL_1469), and NCI-H196 small cell lung carcinoma (CRL-5823, RRID:CVCL_1509). Dr. Peter Houghton (Greehey Children's Cancer Research Institute, University of Texas Health Science Center, San Antonio, TX) provided Rh-18 rhabdomyosarcoma (RRID:CVCL_1659). Pooled donor human umbilical vein endothelial cells (HUVEC, Lonza, cat. CC-2519) and human mesenchymal stem cells (hMSC, Lonza, cat. PT-2501) were purchased from Lonza (Walkersville, MD).
Cell Culture. […]

Setting [1] is: compound alone, run of 11/07/2022.

Values joined by “and” are separate entries in the source; they are usually repeats but may differ in a detail not shown here. Equal values may be shown once.
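Note: seven day drug exposure begun three days after spheroid seeding.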
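Throughout, for viability, T/C: 100% = DMSO vehicle wells and lower values mean less viable spheroid.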

As a reminder, the viability, T/C is the result in the treated group divided by that in the control group, in per cent. Broadly, the IC50 is the concentration at which inhibition is half-maximal. `C#Cc1c(F)ccc2cc(O)cc(-c3ncc4c(N5CC6CCC(C5)N6)nc(OCC56CCCN5CC(F)C6)nc4c3F)c12` (stereo not drawn): the viability, T/C is 89.4% and 98.1% and 81.9% (compound 0.0316 µM); 126% and 101% and 93.3% (compound 0.1 µM); 102% and 92.8% and 90.6% (compound 0.316 µM); 88.3% and 89.3% and 83.3% (compound 1 µM); 86.9% and 78.3% and 64.9% (compound 3.16 µM); 68.7% and 66.2% and 72.1% (compound 10 µM). Also, the IC50 (curve of compound) is greater than 10000 nM.
As for `C=C(F)C(=O)N1CCN(c2nc(OCC3CCCN3C)nc3c2CCN(c2cccc4cccc(Cl)c24)C3)CC1CC#N` (stereo not drawn), the viability, T/C is 95.4% and 95.7% and 94% (compound 0.0316 µM); 109% and 79.9% and 106% (compound 0.1 µM); 97% and 96.7% and 84.9% (compound 0.316 µM); 89.8% and 92.8% and 78.1% (compound 1 µM); 94.5% and 80.9% and 93.3% (compound 3.16 µM); 97.4% and 72.3% and 43% (compound 10 µM). In addition, where the note is “curve of compound”, the IC50 is > 10000 nM and 8440 nM.
`C=CC(=O)N1CCN(c2nc(=O)n(-c3c(C)ccnc3C(C)C)c3nc(-c4c(O)cccc4F)c(F)cc23)C(C)C1` (stereo not drawn): the viability, T/C is, setting by setting: (compound 0.0316 µM) 97.6% and 65.2% and 101%; (compound 0.1 µM) 87.3% and 70.7% and 109%; (compound 0.316 µM) 105% and 85.9% and 110%; (compound 1 µM) 87.3% and 95.3% and 117%; (compound 3.16 µM) 82.4% and 70.7% and 96.5%; (compound 10 µM) 93.6% and 72% and 104%. For the same compound, under “curve of compound”, the IC50 was greater than 10000 nM.
`CCN1C(C(=O)NC23CCC(C(=O)O)(CC2)CC3)C(c2cccc(Cl)c2F)C2(C(=O)Nc3cc(Cl)ccc32)C12CCCCC2` (stereo not drawn): the IC50 by setting is: under setting [1], greater than 3000 nM; (curve of compound) greater than 3000 nM.
With `CCN1CCN(Cc2ccc(Nc3ncc(F)c(-c4cc(F)c5nc(C)n(C(C)C)c5c4)n3)nc2)CC1`, the viability, T/C runs as follows: (compound 0.00316 µM) 112% and 91.6% and 83.9%; (compound 0.01 µM) 104% and 98.3% and 105%; (compound 0.0316 µM) 91% and 73.6% and 115%; (compound 0.1 µM) 87.1% and 75.9% and 100%; (compound 0.316 µM) 73.9% and 61.4% and 72.9%; (compound 1 µM) 62% and 46.7% and 81.3%. The IC50 (curve of compound) is > 1000 nM and 793 nM.
For the compound `CNC(C)C(=O)NC1CN(S(=O)(=O)c2cccc(S(=O)(=O)N3CCC4CCC(C(=O)NC(c5ccccc5)c5ccccc5)N4C(=O)C(NC(=O)C(C)NC)C3)c2)CCC2CCC(C(=O)NC(c3ccccc3)c3ccccc3)N2C1=O` (stereo not drawn), the IC50 was greater than 1000 nM (compound alone, run of 11/15/2022) and greater than 1000 nM (curve of compound).
On to `COc1c(OCCCN2CCOCC2)ccc2c3n(c(=NC(=O)c4cnc(N)nc4)nc12)CCN3`, for which the viability, T/C runs as follows: (compound 0.00316 µM) 88.7% and 89.2% and 87.3%; (compound 0.01 µM) 106% and 82.6% and 84%; (compound 0.0316 µM) 91.1% and 79.6% and 45.8%; (compound 0.1 µM) 62.9% and 81.2% and 48.9%; (compound 0.316 µM) 50.7% and 65.9% and 55.2%; (compound 1 µM) 29.3% and 51.5% and 45.5%.
Regarding `Cc1c(S(C)(=O)=O)c(-c2cc(F)cc(N3CCN(c4ccc(NS(=O)(=O)c5ccc(NC(CCN6CCC(C(=O)OCCCP(=O)(O)O)CC6)CSc6ccccc6)c(S(=O)(=O)C(F)(F)F)c5)cc4)CC3)c2)c(-c2ccc(Cl)cc2)n1C(C)C` (stereo not drawn), the viability, T/C by setting is: (compound 0.0316 µM) 89.8% [middle of 7 runs]; (compound 1 µM) 95.1% [middle of 7 runs]. The IC50 under setting [1] was greater than 10000 nM.
`Cc1nc(N2CCC3(CC2)COC(C)C3N)c(CO)nc1Sc1ccnc(N)c1Cl` (stereo not drawn): the viability, T/C was 94.3% and 68.7% and 97.6% (compound 0.00949 µM); 86.9% and 76% and 58.9% (compound 0.03 µM); 76.2% and 77.3% and 83.6% (compound 0.0949 µM); 76.3% and 77.2% and 97.4% (compound 0.3 µM); 76.3% and 78.3% and 53% (compound 0.949 µM); 70.9% and 57.7% and 49.1% (compound 3 µM). Besides, under “curve of compound”, the half-inhibitory concentration (IC50) is > 3000 nM and 2290 nM.
As for `Cn1ncnc1[C@H]1c2n[nH]c(=O)c3cc(F)cc(c23)N[C@@H]1c1ccc(F)cc1`, the viability, T/C reads like this: (compound 0.000316 µM) 87.9% and 91% and 92%; (compound 0.001 µM) 97.2% and 98.2% and 79.8%; (compound 0.00316 µM) 99.3% and 92.3% and 101%; (compound 0.01 µM) 82.6% and 96.8% and 94.9%; (compound 0.0316 µM) 90.9% and 81.5% and 68.7%; (compound 0.1 µM) 96.8% and 78.6% and 84.5%. Further, the IC50 (curve of compound) is greater than 100 nM.
For `NC(=O)C(=Cn1cnc(-c2cc(C(F)(F)F)cc(C(F)(F)F)c2)n1)c1cncnc1`, the viability, T/C is, setting by setting: (compound 0.000949 µM) 106% and 86.6% and 101%; (compound 0.003 µM) 105% and 110% and 63.5%; (compound 0.00949 µM) 101% and 62.7% and 81.4%; (compound 0.03 µM) 87.2% and 69% and 97.2%; (compound 0.0949 µM) 89.4% and 72.2% and 65.5%; (compound 0.3 µM) 72.1% and 90.1% and 82.9%. For the same compound, the IC50 (curve of compound) is greater than 300 nM.
Consider `NC1CCC(NC2CC2c2ccccc2)CC1` (stereo not drawn), for which the viability, T/C was 104% and 97.4% and 118% (compound 0.000316 µM); 95.6% and 118% and 95.5% (compound 0.001 µM); 86.1% and 99% and 95.9% (compound 0.00316 µM); 99.9% and 127% and 86.2% (compound 0.01 µM); 129% and 85.6% and 94.6% (compound 0.0316 µM); 113% and 111% and 102% (compound 0.1 µM). Besides, under “curve of compound”, the IC50 was greater than 100 nM.
With `O=C(c1cc(Cc2n[nH]c(=O)c3ccccc23)ccc1F)N1CCN(C(=O)C2CC2)CC1`, the viability, T/C (compound 0.0316 µM) was 80.7% and 96.9% and 79.1%; the viability, T/C (compound 0.1 µM) is 93.5% and 79.1% and 92.7%; the viability, T/C (compound 0.316 µM) is 80.5% and 81.3% and 77.4%; the viability, T/C (compound 1 µM) is 96.3% and 112% and 117%; the viability, T/C (compound 3.16 µM) was 97.3% and 89.7% and 106%; the viability, T/C (compound 10 µM) is 94.3% and 70.3% and 86.1%. Also, under “curve of compound”, the IC50 is greater than 10000 nM.
Consider `O=C(c1ccc(F)c(F)c1Nc1ccc(I)cc1F)N1CC(O)([C@@H]2CCCCN2)C1`, for which the viability, T/C is 85.1% and 106% and 91% (compound 0.00316 µM); 92.7% and 96% and 89.8% (compound 0.01 µM); 61.4% and 68.8% and 91.4% (compound 0.0316 µM); 71.8% and 85.1% and 80.8% (compound 0.1 µM); 38.6% and 49.1% and 46.9% (compound 0.316 µM); 18.4% and 19.7% and 19.3% (compound 1 µM). Also, where the note is “curve of compound”, the IC50 was 202 nM and 325 nM and 284 nM.

(Values after PubChem BioAssay AID1963421 (Molecular Pharmacology Branch, DTP, NCI, 2024).)
